The series relates to CCRIS mutagenicity, Ames/micronucleus/aberration tests. Kind of series: CCRIS mutagenicity studies.
The mark [1] stands for this setting: Test System: AMES SALMONELLA TYPHIMURIUM, Strain/Indicator: TA98, Metabolic Activation: NONE, Method: STANDARD PLATE.
Setting [2] is: Test System: AMES SALMONELLA TYPHIMURIUM, Strain/Indicator: TA100, Metabolic Activation: NONE, Method: STANDARD PLATE.

SMILES strings stand for the structures. Active and inactive are the calls of the source. The rule behind the calls is not given here.

As to `Nc1ccn([C@H]2CC[C@@H](CO)O2)c(=O)n1`, the mutagenic call is, setting by setting: (Test System: AMES SALMONELLA TYPHIMURIUM, Strain/Indicator: TA98, Metabolic Activation: HAMSTER, LIVER, S-9, AROCLOR 1254, Method: STANDARD PLATE) “inactive; negative”; under setting [1], “inactive; negative”; (Test System: AMES SALMONELLA TYPHIMURIUM, Strain/Indicator: TA98, Metabolic Activation: RAT, LIVER, S-9, AROCLOR 1254, Method: STANDARD PLATE) “inactive; negative”; (Test System: AMES SALMONELLA TYPHIMURIUM, Strain/Indicator: TA100, Metabolic Activation: HAMSTER, LIVER, S-9, AROCLOR 1254, Method: STANDARD PLATE) “inactive; negative”; under setting [2], “inactive; negative”; (Test System: AMES SALMONELLA TYPHIMURIUM, Strain/Indicator: TA100, Metabolic Activation: RAT, LIVER, S-9, AROCLOR 1254, Method: STANDARD PLATE) “inactive; negative”. Further, the mutagenic call is, setting by setting: (Test System: MOUSE LYMPHOMA, Strain/Indicator: L5178Y (TK+/TK-), Metabolic Activation: NONE, Method: MICROWELL) “inactive; negative”; (Test System: MOUSE LYMPHOMA, Strain/Indicator: L5178Y (TK+/TK-), Metabolic Activation: NONE, Method: SUSPENSION/PLATE) “inactive; negative. reevaluation of results: negative”; (Test System: MOUSE LYMPHOMA, Strain/Indicator: L5178Y (TK+/TK-), Metabolic Activation: RAT, LIVER, S-9, AROCLOR 1254, Method: SUSPENSION/PLATE) “inactive; negative. reevaluation of results: negative”; (Test System: MOUSE LYMPHOMA, Strain/Indicator: L5178Y (TK+/TK-), Metabolic Activation: S-9, Method: MICROWELL) “inactive; negative”.
`Oc1ccc(O)cc1`: the mutagenic call by setting is: (End Point: IN VITRO CHROMOSOMAL ABERRATIONS, Test System: CHINESE HAMSTER OVARY CELLS, Metabolic Activation: NONE) “inactive; negative”; (End Point: IN VITRO CHROMOSOMAL ABERRATIONS, Test System: CHINESE HAMSTER OVARY CELLS, Metabolic Activation: RAT, LIVER, S-9, AROCLOR 1254) “active; positive”; (End Point: IN VITRO CHROMOSOMAL ABERRATIONS, Test System: CHINESE HAMSTER V79 CELLS, Metabolic Activation: NONE) “active; positive; effective at higher doses at ph 7.4”; (End Point: IN VITRO CHROMOSOMAL ABERRATIONS, Test System: CHL/IU CELLS, Metabolic Activation: NONE) “active; positive (structural changes)”; (End Point: IN VITRO CHROMOSOMAL ABERRATIONS, Test System: HUMAN (MALE) PERIPHERAL BLOOD LYMPHOCYTES, Metabolic Activation: NONE) “inactive; negative”; (End Point: IN VITRO CHROMOSOMAL ABERRATIONS, Test System: HUMAN (MALE) PERIPHERAL BLOOD LYMPHOCYTES, Metabolic Activation: RAT, LIVER, S-9, AROCLOR 1254) “inactive; negative”. Also, the mutagenic call is, setting by setting: (End Point: IN VITRO CHROMOSOMAL ABERRATIONS, Test System: HUMAN PERIPHERAL LYMPHOCYTES, Metabolic Activation: NONE) “active; positive (ploidy)”; (End Point: IN VITRO CHROMOSOMAL ABERRATIONS, Test System: HUMAN PERIPHERAL LYMPHOCYTES, Metabolic Activation: NONE, Method: FISH) “active; positive (ploidy); greater effects on certain chromosomes”; (End Point: IN VITRO CHROMOSOMAL ABERRATIONS, Test System: HUMAN PERIPHERAL LYMPHOCYTES, Metabolic Activation: NONE, Method: FISH - DUAL COLOR PROBES) “active; positive (structural and ploidy changes)”; (End Point: IN VITRO CHROMOSOMAL ABERRATIONS, Test System: HUMAN PERIPHERAL LYMPHOCYTES, Metabolic Activation: NONE, Method: FISH - SINGLE COLOR) “active; positive (ploidy)”; (End Point: IN VITRO CHROMOSOMAL ABERRATIONS, Test System: HUMAN PERIPHERAL LYMPHOCYTES, Metabolic Activation: NONE, Method: FISH- DUAL COLOR PROBES) “inactive; negative for translocations”; (End Point: IN VITRO CHROMOSOMAL ABERRATIONS, Test System: V79, Metabolic Activation: RAT, LIVER, S-9, AROCLOR 1254) “active; positive; effective at higher doses at ph 7.4”. In addition, the mutagenic call is “active; positive” (End Point: IN VITRO MICRONUCLEUS, Test System: CHL/IU CELLS, Metabolic Activation: NONE); “active; positive” (End Point: IN VITRO MICRONUCLEUS, Test System: HAMSTER V79 CELLS, Metabolic Activation: NONE); “active; positive; individuals with gstm1 null genotype more affected than those with gst” (End Point: IN VITRO MICRONUCLEUS, Test System: HUMAN LYMPHOCYTES, Metabolic Activation: NONE); “active; positive (structural changes and ploidy). toxic at 0.12 mg/ml” (End Point: In vitro chromosomal aberrations, Test System: Chinese hamster lung (CHL/IU) cells, Metabolic Activation: Rat, Liver, S9, Phenobarbital and 5,6-benzoflavone); “inactive; negative” (Test System: AMES SALMONELLA TYPHIMURIUM, Strain/Indicator: TA97, Metabolic Activation: NONE, Method: STANDARD PLATE); “inactive; negative” (Test System: AMES SALMONELLA TYPHIMURIUM, Strain/Indicator: TA97, Metabolic Activation: RAT, LIVER, S-9, PCB, Method: STANDARD PLATE). Moreover, the mutagenic call is, setting by setting: (Test System: AMES SALMONELLA TYPHIMURIUM, Strain/Indicator: TA97, Metabolic Activation: RAT, LIVER, S-9, PHENOBARBITAL, Method: PREINCUBATION) “active; positive”; (Test System: AMES SALMONELLA TYPHIMURIUM, Strain/Indicator: TA98, Metabolic Activation: NONE, Method: PREINCUBATION) “active; positive”; under setting [1], “inactive; negative”; (Test System: AMES SALMONELLA TYPHIMURIUM, Strain/Indicator: TA98, Metabolic Activation: RAT, LIVER, S-9, PCB, Method: STANDARD PLATE) “inactive; negative”; (Test System: AMES SALMONELLA TYPHIMURIUM, Strain/Indicator: TA98, Metabolic Activation: RAT, LIVER, S-9, PHENOBARBITAL, Method: PREINCUBATION) “active; positive”; (Test System: AMES SALMONELLA TYPHIMURIUM, Strain/Indicator: TA100, Metabolic Activation: NONE, Method: PREINCUBATION) “active; positive”. In addition, the mutagenic call was “inactive; negative” under setting [2]; “inactive; negative” (Test System: AMES SALMONELLA TYPHIMURIUM, Strain/Indicator: TA100, Metabolic Activation: RAT, LIVER, S-9, PCB, Method: STANDARD PLATE); “active; positive” (Test System: AMES SALMONELLA TYPHIMURIUM, Strain/Indicator: TA100, Metabolic Activation: RAT, LIVER, S-9, PHENOBARBITAL, Method: PREINCUBATION); “active; positive” (Test System: AMES SALMONELLA TYPHIMURIUM, Strain/Indicator: TA102, Metabolic Activation: NONE, Method: STANDARD PLATE); “active; positive” (Test System: AMES SALMONELLA TYPHIMURIUM, Strain/Indicator: TA104, Metabolic Activation: NONE, Method: PREINCUBATION); “active; positive” (Test System: UDS SHE CELLS, Strain/Indicator: THY INCORP, Metabolic Activation: NONE, Method: LIQUID SCINTILLATION COUNTING).
As for `Oc1ccc(N=Nc2ccccn2)c(O)c1`, the mutagenic call (End Point: Mouse lymphoma, Test System: L5178Y (TK+/TK-)/trifluorothymidine, Metabolic Activation: None, Method: Suspension/plate) was “inactive; negative”; the mutagenic call (End Point: Mouse lymphoma, Test System: L5178Y (TK+/TK-)/trifluorothymidine, Metabolic Activation: Rat, Liver, S-9, Method: Suspension/plate) was “inactive; negative”; the mutagenic call (Test System: Ames Salmonella typhimurium, Strain/Indicator: TA98, Metabolic Activation: None) is “inactive; negative”; the mutagenic call (Test System: Ames Salmonella typhimurium, Strain/Indicator: TA98, Metabolic Activation: Rat, Liver, S-9) was “inactive; negative”; the mutagenic call (Test System: Ames Salmonella typhimurium, Strain/Indicator: TA100, Metabolic Activation: None) is “inactive; negative”; the mutagenic call (Test System: Ames Salmonella typhimurium, Strain/Indicator: TA100, Metabolic Activation: Rat, Liver, S-9) was “inactive; negative”. The mutagenic call is “inactive; negative” (Test System: Ames Salmonella typhimurium, Strain/Indicator: TA1535, Metabolic Activation: None); “inactive; negative” (Test System: Ames Salmonella typhimurium, Strain/Indicator: TA1535, Metabolic Activation: Rat, Liver, S-9); “inactive; negative” (Test System: Ames Salmonella typhimurium, Strain/Indicator: TA1537, Metabolic Activation: None); “inactive; negative” (Test System: Ames Salmonella typhimurium, Strain/Indicator: TA1537, Metabolic Activation: Rat, Liver, S-9).

The values are drawn from PubChem BioAssay AID1259407 (Chemical Carcinogenesis Research Information System (CCRIS), 2018).
